Experiments:
cancer cells = settings: cell and mouse xenograft models; Grant et al. 2012; cited from earlier work
[1] = test system: colon cancer cell line HT29; test: Cell growth inhibition and apoptosis induction, colon cancer cell line HT29; format: cell-based; settings: for growth inhibition and apoptosis-inducing effects: 0.05-10 μM, 0-96 hours; for growth inhibition and apoptosis-inducing effects (cell images, MTT assay, FIG. 6): compared to the untreated control, 48 hours images, 96 hours MTT
Method: (§1) An embryonic kidney cell line (293T), a breast cancer cell line (MDA-MB-231), and colon cancer cell lines (HCT116 and HT29) were inoculated in a 96-well plate at a density of 3,000 cells/well, and 50 μL of a culture fluid was added thereto. The resulting mixture was cultured for an hour under 37° C./5% CO2 conditions. Each of the peptides prepared in Example 3 was added at an increasing concentration of 0.05, 1, 2, 3 and 10 μM to the well plate inoculated with each of the cell lines, and the resulting mixture was cultured for 0, 24, 48, 72 and 96 hours under 37° C./5% CO2 conditions. When the culture was completed, the cells were observed and their morphological changes were imaged using an inverted phase contrast microscope.

[2] = test system: embryonic kidney cell line (293T); test: Cell growth inhibition and apoptosis induction, embryonic kidney cell line; format: cell-based; settings: for growth inhibition and apoptosis-inducing effects: 0.05-10 μM, 0-96 hours; for growth inhibition and apoptosis-inducing effects (cell images, MTT assay, FIG. 6): compared to the untreated control, 48 hours images, 96 hours MTT
Method: as §1

[3] = test system: breast cancer cell line (MDA-MB-231); test: Cell growth inhibition and apoptosis induction, breast cancer cell line; format: cell-based; settings: for growth inhibition and apoptosis-inducing effects: 0.05-10 μM, 0-96 hours; for growth inhibition and apoptosis-inducing effects (cell images, MTT assay, FIG. 6): compared to the untreated control, 48 hours images, 96 hours MTT
Method: as §1

[4] = test system: colon cancer cell line HCT116; test: Cell growth inhibition and apoptosis induction, colon cancer cell line HCT116; format: cell-based; settings: for growth inhibition and apoptosis-inducing effects: 0.05-10 μM, 0-96 hours; for growth inhibition and apoptosis-inducing effects (cell images, MTT assay, FIG. 6): compared to the untreated control, 48 hours images, 96 hours MTT
Method: as §1

[5] = test system: liver cancer cell line (Hep3B); test: Cell growth inhibition and apoptosis, liver cancer cell line (MTT, CCK, Crystal Violet); format: cell-based; settings: Hep3B treated once with peptide; compared to 5-2C-treated group
Source text: The peptides were used to analyze effects on cell growth inhibition and apoptosis in the liver cancer cell line (Hep3B). FIGS. […] 8C and 8D graphically show the growth inhibition and apoptosis-inducing effects of the respective peptides at different concentrations. […] Therefore, it can be seen that the peptide of SEQ ID NO: 1 according to the present invention is a peptide having a sequence composed of an optimized number of amino acids to have anticancer activity.

colon cancer cells = test: Growth inhibition and apoptosis in colon cancer cells; format: cell-based; settings: compared with Peptide 5-2C
various cells = test: IC50 in various cells (MTT, FIG. 16); format: cell-based; settings: compared with Peptide 5-2C
breast cancer cells = test: Growth inhibition and apoptosis in breast cancer cells; format: cell-based; settings: compared with Peptide 5-2C
liver cancer cells = test: Growth inhibition and apoptosis in liver cancer cells; format: cell-based; settings: compared with Peptide 5-2C
kidney-derived cells = test: Growth inhibition and apoptosis in kidney-derived cells; format: cell-based; settings: compared with Peptide 5-2C
leukemia cells = test: Growth inhibition and apoptosis in leukemia cells; format: cell-based; settings: compared with Peptide 5-2C

Compound | growth inhibition and apoptosis-inducing effects [1] | growth inhibition and apoptosis-inducing effects (cell images, MTT assay, FIG. 6) [1] | growth inhibition and apoptosis-inducing effects [2] | growth inhibition and apoptosis-inducing effects (cell images, MTT assay, FIG. 6) [2] | growth inhibition and apoptosis-inducing effects [3] | growth inhibition and apoptosis-inducing effects (cell images, MTT assay, FIG. 6) [3] | growth inhibition and apoptosis-inducing effects [4] | growth inhibition and apoptosis-inducing effects (cell images, MTT assay, FIG. 6) [4] | also measured
CCOc1ccccc1C1CC(=O)Nc2cc3c(cc21)OCO3 (centres unmarked) [FQI1, Factor Quinolinone Inhibitor 1] | – | – | – | – | – | – | – | – | inhibition of cancer cells versus normal cells (cancer cells): successful in inhibiting only the cancer cells without exerting any influence on normal cells
Ac-NYPQRcrgdkgpdc-amide [Peptide 5-2-51C] | exhibited growth inhibition and apoptosis-inducing effects | superior growth inhibition and apoptosis-inducing effects | exhibited growth inhibition and apoptosis-inducing effects | superior growth inhibition and apoptosis-inducing effects | exhibited growth inhibition and apoptosis-inducing effects | superior growth inhibition and apoptosis-inducing effects | exhibited growth inhibition and apoptosis-inducing effects | superior growth inhibition and apoptosis-inducing effects | –
Ac-PQRcrgdkgpdc-amide [Peptide 5-2-32C] | – | – | – | – | no growth inhibition and apoptosis-inducing effects at all | – | – | – | –
Ac-YPQRPcrgdkgpdc-amide [Peptide 5-2-52C] | exhibited growth inhibition and apoptosis-inducing effects | superior growth inhibition and apoptosis-inducing effects | exhibited growth inhibition and apoptosis-inducing effects | superior growth inhibition and apoptosis-inducing effects | exhibited growth inhibition and apoptosis-inducing effects | superior growth inhibition and apoptosis-inducing effects | exhibited growth inhibition and apoptosis-inducing effects | superior growth inhibition and apoptosis-inducing effects | –
Ac-YPQRcrgdkgpdc-amide [Peptide 5-2-4C] | exhibited growth inhibition and apoptosis-inducing effects | superior growth inhibition and apoptosis-inducing effects | exhibited growth inhibition and apoptosis-inducing effects | superior growth inhibition and apoptosis-inducing effects | exhibited growth inhibition and apoptosis-inducing effects | superior growth inhibition and apoptosis-inducing effects | exhibited growth inhibition and apoptosis-inducing effects | superior growth inhibition and apoptosis-inducing effects | change in IC50 values observed for 3 days [5]: steadily decreasing over 3 days, a level of which was highly similar to that of Peptide 5-2C; growth inhibition and apoptosis (colon cancer cells): a tendency very similar to Peptide 5-2C; IC50 value at 48 hours (various cells): very similar to that of Peptide 5-2C; growth inhibition and apoptosis (breast cancer cells): a tendency very similar to Peptide 5-2C; growth inhibition and apoptosis (liver cancer cells): a tendency very similar to Peptide 5-2C; growth inhibition and apoptosis (kidney-derived cells): a tendency very similar to Peptide 5-2C; growth inhibition and apoptosis (leukemia cells): a tendency very similar to Peptide 5-2C
Ac-YPQcrgdkgpdc-amide [Peptide 5-2-31C] | – | – | – | – | no growth inhibition and apoptosis-inducing effects at all | – | – | – | –
CRGDKGPDC [iRGD, reference compound] | – | – | – | – | no growth inhibition and apoptosis-inducing effects at all | – | – | – | –

Reference: patent US10654889B2, “Peptide having anticancer activity, and pharmaceutical composition, health functional food composition and functional cosmetic composition for preventing and treating cancer comprising the same as active ingredient” (INDUSTRY-UNIVERSITY COOPERATION FOUNDATION HANYANG …, priority 2016, dated 2020)
